Experimental data: patent US20120202756A1, “USE OF PRODRUGS TO AVOID GI MEDIATED ADVERSE EVENTS” (priority 2009, published 2012)
In brackets after ≈: the same amount, converted by molar mass. Counter-ions that a name gives are not always drawn.

What was measured:
Corynebacterium jeikeium [1] = settings: antibiotic-susceptible clinical isolate
Veillonella spp. = settings: clinical isolate
Fusobacterium nucleatum = settings: clinical isolate
[2] = Stability in simulated intestinal juice (FeSSIF); type: in vitro ADME; settings: FeSSIF pH 5.0, pancreatin 1%
Experimental: (§1) To avoid direct interaction between the active drug and the gut microfloral population, the prodrug should not undergo premature chemical or enzymic cleavage back to the parent dug while within the gut lumen. To confirm this the prodrugs were incubated with USP SGF (simulated gastric fluid), FeSSIF (fed state simulated intestinal fluid) and FaSSIF (fasted state simulated intestinal fluid) and remaining prodrug and any generated active drug assayed by use of a qualified LC-MS/MS analytical method.
Pancreatin was again added at 1%.
(§2) To minimize the direct inhibitory action of this drug on gastric emptying/gut motility—and resultant nausea—the prodrug should not undergo premature chemical or enzymic cleavage back to the parent drug while within the gut lumen. To confirm this, the prodrugs were incubated with USP SGF (simulated gastric fluid), FeSSIF (fed state simulated intestinal fluid) and FaSSIF (fasted state simulated intestinal fluid) and remaining prodrug, and any generated active drug, assayed by use of a qualified LC-MS/MS analytical method.
as §1, with “gut,” for “gut microfloral population,”

Group G Streptococcus [3] = settings: antibiotic-susceptible clinical isolate
[4] = test system: Peptostreptococcus anaerobius; assay: MIC, clindamycin prodrugs; type: cell-based; settings: NCTC 11460
[5] = test system: Peptostreptococcus micros; settings: clinical isolate
[6] = test system: Porphyromonas assacharolyticus; settings: clinical isolate
[7] = Stability in simulated intestinal juice (FaSSIF); type: in vitro ADME; settings: FaSSIF pH 6.5, pancreatin 1%, prodrug 20 μg/mL
Experimental: as §1
(§3) Method—Prodrug (20 μg/mL) in the FaSSIF cocktail comprising sodium taurocholate 3 mM, lecithin 0.75 mM, NaOH 8.7 mM, NaH2PO4. H2O 28.7 mM, NaCl 106 mM, pancreatin 1% (overall pH 6.5) was incubated for 2 h at 37° C. After acidifying the incubation to stop any reaction the amount of prodrug remaining and drug generated were determined using a qualified LC-MS/MS method.
as §2
as §3, with “Prodrug” for “Method—Prodrug”
as §1, with “gut,” for “gut microfloral population,”

[8] = test system: Streptococcus constellatus; settings: antibiotic-susceptible clinical isolate
Listeria monocytogenes = settings: antibiotic-susceptible clinical isolate
Streptococcus agalactiae = settings: antibiotic-susceptable clinical isolate
Prevotella oralis = settings: clinical isolate
Enterococcus faecium [9] = settings: vancomycin-susceptible clinical isolate
[10] = test system: Staphylococcus saprophyticus; settings: antibiotic susceptible clinical isolate
Clostridium bifermentans = settings: ATCC 638
Prevotella intermedia [11] = settings: clinical isolate
Enterococcus faecalis [12] = settings: ATCC 29212 antibiotic-susceptible type strain
[13] = test system: Fusobacterium necrophorum; settings: clinical isolate
Clostridium sordellii [14] = settings: NCTC 13356
[15] = test system: Staphylococcus saprophyticus; assay: microbe, parasite or virus in culture; settings: read-out: Minimum inhibitory concentration
Prevotella denticola = assay: microbe, parasite or virus in culture; settings: read-out: Minimum inhibitory concentration
Enterococcus faecium [16] = assay: microbe, parasite or virus in culture; settings: read-out: Minimum inhibitory concentration
Corynebacterium jeikeium [17] = assay: microbe, parasite or virus in culture; settings: read-out: Minimum inhibitory concentration
Prevotella intermedia [18] = assay: microbe, parasite or virus in culture; settings: read-out: Minimum inhibitory concentration
Clostridium sordellii [19] = assay: microbe, parasite or virus in culture; settings: Paraclostridium sordellii, NCTC13356, read-out: Minimum inhibitory concentration
Group G Streptococcus [20] = assay: microbe, parasite or virus in culture; settings: read-out: Minimum inhibitory concentration
Streptococcus mitis = assay: microbe, parasite or virus in culture; settings: read-out: Minimum inhibitory concentration
[21] = test system: Streptococcus constellatus; assay: microbe, parasite or virus in culture; settings: read-out: Minimum inhibitory concentration
Enterococcus faecalis [22] = assay: microbe, parasite or virus in culture; settings: ATCC29212, read-out: Minimum inhibitory concentration
Clostridium novyi = assay: microbe, parasite or virus in culture; settings: ATCC19402, read-out: Minimum inhibitory concentration
[23] = test system: Porphyromonas endodontalis; assay: microbe, parasite or virus in culture; settings: read-out: Minimum inhibitory concentration
[24] = test system: Peptostreptococcus micros; assay: microbe, parasite or virus in culture; settings: Parvimonas micra, read-out: Minimum inhibitory concentration

Structure (SMILES) | Minimum inhibitory concentration (Corynebacterium jeikeium [1]) | Minimum inhibitory concentration (Veillonella spp.) | Minimum inhibitory concentration (Fusobacterium nucleatum) | Simulated intestinal juice (2 h, 37° C.) (FeSSIF) % active drug generated [2] | Minimum inhibitory concentration (Group G Streptococcus [3]) | Minimum inhibitory concentration [4] | Minimum inhibitory concentration [5] | Minimum inhibitory concentration [6] | Simulated intestinal juice (2 h, 37° C.) (FaSSIF) % active drug generated [7] | Minimum inhibitory concentration [8] | Minimum inhibitory concentration (Listeria monocytogenes) | Minimum inhibitory concentration (Streptococcus agalactiae) | Minimum inhibitory concentration (Prevotella oralis) | Minimum inhibitory concentration (Enterococcus faecium [9]) | Minimum inhibitory concentration [10] | Minimum inhibitory concentration (Clostridium bifermentans) | Minimum inhibitory concentration (Prevotella intermedia [11]) | Minimum inhibitory concentration (Enterococcus faecalis [12]) | Minimum inhibitory concentration [13] | Minimum inhibitory concentration (Clostridium sordellii [14]) | also measured
CCCC1CC(C(=O)NC(C(C)Cl)C2OC(SC)C(OC(=O)CCCC(=O)Nc3ccc(C(=O)O)cc3)C(O)C2O)N(C)C1.O=C(O)C(F)(F)F (centres unmarked) [Clindamycin glutaryl PABA ester, Clindamycin-2-(glutaryl-PABA) ester trifluoroacetate] | >64 µg/mL | 1 µg/mL | 2 µg/mL | <1% | 2 µg/mL | 32 µg/mL | 8 µg/mL | 0.12 µg/mL | <1% | 2 µg/mL | 32 µg/mL | 2 µg/mL | ≦0.03 ug/mL | >64 µg/mL | 4 µg/mL | 32 µg/mL | 0.12 µg/mL | >64 µg/mL | 1 µg/mL | >64 µg/mL | 
CCCC1CC(C(=O)NC(C(C)Cl)C2OC(SC)C(OC(=O)CCC(=O)N[C@H](C(=O)O)C(C)C)C(O)C2O)N(C)C1 (stereo partly drawn) [Clindamycin succinyl valine ester, Clindamycin-2-[succinyl-(S)-valine]ester trifluoroacetate] | >64 µg/mL | 0.5 µg/mL | 0.25 µg/mL | <1% | 1 µg/mL | 8 µg/mL | 2 µg/mL | 0.12 µg/mL | <1% | 1 µg/mL | 16 µg/mL | 1 µg/mL | ≦0.03 ug/mL | >64 µg/mL | 1 µg/mL | 4 µg/mL | 0.12 µg/mL | >64 µg/mL | 0.12 µg/mL | 16 µg/mL | 
CCC[C@@H]1C[C@@H](C(=O)N[C@@H]([C@H]2O[C@H](SC)[C@H](O)[C@@H](O)[C@H]2O)[C@H](C)Cl)N(C)C1 [Clindamycin, clindamycin, reference compound] |  |  |  |  |  |  |  |  |  |  |  |  |  |  |  |  |  |  |  |  | MIC [15]: 0.06 µg/mL (≈ 0.141 µM); MIC (Prevotella denticola): ≤ 0.03 µg/mL; MIC (Enterococcus faecium [16]): 32 µg/mL (≈ 75.3 µM); MIC (Corynebacterium jeikeium [17]): > 64 µg/mL; MIC (Prevotella intermedia [18]): ≤ 0.03 µg/mL; MIC (Clostridium sordellii [19]): 0.5 µg/mL (≈ 1.18 µM); MIC (Group G Streptococcus [20]): ≤ 0.03 µg/mL; MIC (Streptococcus mitis): ≤ 0.03 µg/mL; MIC [21]: ≤ 0.03 µg/mL; MIC (Enterococcus faecalis [22]): 8 µg/mL (≈ 18.8 µM); MIC (Clostridium novyi): ≤ 0.03 µg/mL; MIC [23]: ≤ 0.03 µg/mL; MIC [24]: 0.06 µg/mL (≈ 0.141 µM)
